This note sets out measurements from publication PMC9916969 (International Journal of Molecular Sciences, 2023).

One test deals with T1, EeAChE PAS (Electrophorus electricus, UniProt O42275).
T1 construct: The enzyme was electric eel AChE (EeAChE type VI-S, lyophilized powder, Sigma-Aldrich); purchased Sigma-Aldrich type VI-S; host or cells: electric eel (tissue-derived)
The test is classed as binding. Particulars: compound 20 µM; EeAChE 7 µM; propidium iodide 8 µM. The gist of the method:
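Compound displacement of propidium iodide (8 μM final, added for 15 min) from the peripheral anionic site of electric eel AChE (type VI-S) in Tris buffer. Fluorescence read at 530 nm excitation/600 nm emission, in triplicate. % displacement was calculated relative to AChE plus propidium without inhibitor.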

Test [1] can be described thus: ABTS radical cation scavenging assay. Further details: key to ABTS^•+ Scavenging Activity, TEAC: TEAC: ratio of compound slope to Trolox slope (Trolox equivalents). To be noted: 1 h incubation; for IC50: 50% reduction of ABTS radical cation; for ABTS^•+ Scavenging Activity, TEAC: Trolox equivalent, n.a. = not active. The gist of the method: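 Compounds (0.5–100 µM, in DMSO) mixed with ABTS•+ working solution in ethanol (100 μM final), radical pre-formed from 7 mM ABTS plus 2.45 mM persulfate for 12–16 h in the dark. Absorbance decrease at 734 nm after 1 h at 30 °C. TEAC derived as slope ratio of absorbance-versus-concentration lines, compound versus Trolox.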

A further test has as its target T2, equine serum BChE (Equus caballus, UniProt P81908).
T2 construct: human erythrocyte AChE, equine serum BChE, and porcine liver CES were used; purchased Sigma-Aldrich; host or cells: equine serum (tissue-derived)
Briefly: biochemical. To be noted: mean ± SEM, n = 3, read-out: Inhibitory activity against BChE, IC50. The gist of the method: (§1)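 Esterase sources were human erythrocyte AChE, equine serum BChE and porcine liver CES, with 4-NPA as CES substrate. Chromophore absorbance read on a plate reader. Compounds screened first at a single 20 µM concentration.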

The target in the next test is T3, human erythrocyte AChE (Homo sapiens, UniProt P22303).
T3 construct: human erythrocyte AChE, equine serum BChE, and porcine liver CES were used; purchased Sigma-Aldrich; host or cells: human erythrocytes (tissue-derived)
Put plainly: biochemical. Particulars: mean ± SEM, n = 3, read-out: Inhibitory activity against AChE, IC50. In short, it runs like this: as §1

The target of another test is β-amyloid (1–42) (Aβ42) (Homo sapiens, UniProt P05067). Put plainly: Inhibition of Aβ42 self-aggregation (thioflavin T). The test is classed as biochemical. Particulars: Aβ42 50 µM; compound 100 µM; 24 h, 37 °C; thioflavin T; read-out: Inhibition of Aβ42 Self-Aggregation. In short, it runs like this:
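Aβ42 (HFIP-pretreated, 500 μM DMSO stock) at 50 μM final in 215 mM Na-phosphate pH 8.0 was incubated 24 h at 37 °C without stirring, with or without compounds at 100 µM. Then ThT was added (4 μM final, glycine-NaOH pH 8.5) and fluorescence read at 440/485 nm, in triplicate.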

Where “and” joins values, the source holds several entries; their conditions need not be identical. Identical values can stand only once.

T3 sequence (P22303 32-617 isoform P22303-2 limits assumed): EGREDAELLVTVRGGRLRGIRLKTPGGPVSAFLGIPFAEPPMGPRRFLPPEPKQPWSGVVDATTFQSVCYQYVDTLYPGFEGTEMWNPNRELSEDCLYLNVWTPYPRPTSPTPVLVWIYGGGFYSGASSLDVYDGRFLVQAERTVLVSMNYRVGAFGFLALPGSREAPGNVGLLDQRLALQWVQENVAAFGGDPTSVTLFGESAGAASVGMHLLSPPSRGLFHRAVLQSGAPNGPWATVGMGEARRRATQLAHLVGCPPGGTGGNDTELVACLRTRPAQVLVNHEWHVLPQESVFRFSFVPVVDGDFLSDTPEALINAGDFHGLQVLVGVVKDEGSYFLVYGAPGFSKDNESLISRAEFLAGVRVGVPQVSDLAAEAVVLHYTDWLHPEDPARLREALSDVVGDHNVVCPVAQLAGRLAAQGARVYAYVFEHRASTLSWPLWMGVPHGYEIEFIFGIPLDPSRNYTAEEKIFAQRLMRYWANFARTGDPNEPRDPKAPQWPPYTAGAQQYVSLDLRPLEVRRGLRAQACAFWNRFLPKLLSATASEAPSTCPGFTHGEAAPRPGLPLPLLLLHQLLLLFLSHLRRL
T2 sequence (P81908 whole entry): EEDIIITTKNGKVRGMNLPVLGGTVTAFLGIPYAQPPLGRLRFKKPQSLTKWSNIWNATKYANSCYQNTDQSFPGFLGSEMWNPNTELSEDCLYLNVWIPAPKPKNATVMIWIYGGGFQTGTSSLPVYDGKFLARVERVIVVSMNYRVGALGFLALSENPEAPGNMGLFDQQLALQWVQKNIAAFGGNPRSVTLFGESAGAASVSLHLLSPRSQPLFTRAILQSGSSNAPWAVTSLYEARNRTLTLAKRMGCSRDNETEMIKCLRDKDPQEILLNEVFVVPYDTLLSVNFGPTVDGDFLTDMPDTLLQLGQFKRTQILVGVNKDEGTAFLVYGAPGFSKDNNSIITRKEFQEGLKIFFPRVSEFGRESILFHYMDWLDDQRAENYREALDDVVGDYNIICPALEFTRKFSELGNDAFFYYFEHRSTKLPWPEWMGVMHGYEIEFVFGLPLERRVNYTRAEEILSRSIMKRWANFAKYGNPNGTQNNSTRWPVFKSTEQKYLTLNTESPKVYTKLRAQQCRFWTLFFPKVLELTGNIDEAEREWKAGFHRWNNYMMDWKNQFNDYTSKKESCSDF
T1 sequence (O42275 24-633): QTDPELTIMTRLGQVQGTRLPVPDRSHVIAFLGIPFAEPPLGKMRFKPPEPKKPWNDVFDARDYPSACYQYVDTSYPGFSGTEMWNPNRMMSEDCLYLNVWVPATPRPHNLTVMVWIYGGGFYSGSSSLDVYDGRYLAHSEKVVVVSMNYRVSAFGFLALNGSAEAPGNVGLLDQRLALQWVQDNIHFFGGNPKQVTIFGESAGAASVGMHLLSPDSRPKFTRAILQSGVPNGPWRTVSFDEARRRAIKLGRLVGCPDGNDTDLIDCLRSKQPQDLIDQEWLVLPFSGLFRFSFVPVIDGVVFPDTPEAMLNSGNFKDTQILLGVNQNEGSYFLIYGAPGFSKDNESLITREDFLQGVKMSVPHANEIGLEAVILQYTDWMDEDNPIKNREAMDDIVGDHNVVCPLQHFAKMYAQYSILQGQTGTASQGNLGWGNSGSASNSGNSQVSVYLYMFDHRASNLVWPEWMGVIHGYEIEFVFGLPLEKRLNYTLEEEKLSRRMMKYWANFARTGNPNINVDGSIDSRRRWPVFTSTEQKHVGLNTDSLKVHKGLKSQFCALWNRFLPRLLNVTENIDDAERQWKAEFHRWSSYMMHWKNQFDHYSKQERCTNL
Chain of β-amyloid (1–42) (Aβ42) (P05067 672-713 limits assumed): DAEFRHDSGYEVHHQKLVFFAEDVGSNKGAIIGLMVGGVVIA

On to `O=C(NCCCCCCNc1c2c(nc3ccccc13)CCCC2)c1ccccc1O` [5b], for which, on EeAChE PAS, the “Propidium Displacement from EeAChE PAS” value is 12.6 ± 1.0%. Also, the values for the IC50 (in test [1]; at equine serum BChE; at human erythrocyte AChE) were 21.3 ± 1.5 µM, 0.0119 ± 0.0001 µM and 0.294 ± 0.008 µM, respectively. In addition, the “ABTS^•+ Scavenging Activity, TEAC” value in test [1] was 0.93 and 0.90 ± 0.05. The inhibition at 100 µM at β-amyloid (1–42) (Aβ42) was determined as 41.5 ± 2.9%.

Take `O=C(NCCCCCCNc1c2c(nc3ccccc13)CCCC2)c1cc(F)c(F)cc1O` [7b]: the “Propidium Displacement from EeAChE PAS” value at EeAChE PAS is listed as 12.2 ± 0.9%. In addition, the IC50 in test [1] was over 200 µM; on equine serum BChE, 0.0317 ± 0.003 µM; on human erythrocyte AChE it was 0.249 ± 0.017 µM. Further, the “ABTS^•+ Scavenging Activity, TEAC” value in test [1] worked out at 0.030 ± 0.001. Moreover, the inhibition at 100 µM on β-amyloid (1–42) (Aβ42) came to 24.1 ± 2.1%.

Regarding `O=C(NCCCCCCCCNc1c2c(nc3ccccc13)CCCC2)c1cc(F)c(F)cc1O` [7c], the “Propidium Displacement from EeAChE PAS” value at EeAChE PAS is 13.6 ± 1.0%. The IC50 in test [1] was over 200 µM; on equine serum BChE it was 0.0226 ± 0.0018 µM; at human erythrocyte AChE it was 0.188 ± 0.015 µM. Further, the “ABTS^•+ Scavenging Activity, TEAC” value in test [1] was determined as 0.040 ± 0.002. Moreover, the inhibition at 100 µM at β-amyloid (1–42) (Aβ42) was found to be 37.2 ± 2.9%.

Take `Oc1ccccc1/C=N/CCCCCCCCNc1c2c(nc3ccccc13)CCCC2` [10c]: on EeAChE PAS, the “Propidium Displacement from EeAChE PAS” value turned out to be 19.8 ± 1.7%. In addition, the IC50 came out at 34.2 ± 1.8 µM in test [1], 0.0156 ± 0.0012 µM at equine serum BChE and 0.0826 ± 0.0046 µM on human erythrocyte AChE. Moreover, the “ABTS^•+ Scavenging Activity, TEAC” value in test [1] was 0.42 ± 0.04. Besides, the inhibition at 100 µM at β-amyloid (1–42) (Aβ42) worked out at 80.1 ± 5.6%.
